Where a SMILES comes first, the peptide text is derived from it.
Columns and labels:
[1] = biological target: T1, Glucagon-like peptide 1 receptor (Homo sapiens, UniProt P43220); assay: Ratio of EC50 for agonist activity at human GLP-1R expressed in HEK293 cells in presence of 4.4% HSA to EC50 for agonist activity at human GLP-1R expressed in HEK293 cells in presence of 0% HSA; assay type: cell-based
[2] = biological target: T1, Glucagon-like peptide 1 receptor; assay: Agonist activity at human GLP-1R expressed in HEK293 cells assessed as stimulation of cAMP accumulation incubated for 20 mins in presence of 0% HSA; assay type: functional, cell-based
[3] = biological target: T1, Glucagon-like peptide 1 receptor; assay: Agonist activity at human GLP-1R expressed in HEK293 cells assessed as stimulation of cAMP accumulation incubated for 20 mins in presence of 4.4% HSA; assay type: functional, cell-based

T1 sequence (P43220 whole entry): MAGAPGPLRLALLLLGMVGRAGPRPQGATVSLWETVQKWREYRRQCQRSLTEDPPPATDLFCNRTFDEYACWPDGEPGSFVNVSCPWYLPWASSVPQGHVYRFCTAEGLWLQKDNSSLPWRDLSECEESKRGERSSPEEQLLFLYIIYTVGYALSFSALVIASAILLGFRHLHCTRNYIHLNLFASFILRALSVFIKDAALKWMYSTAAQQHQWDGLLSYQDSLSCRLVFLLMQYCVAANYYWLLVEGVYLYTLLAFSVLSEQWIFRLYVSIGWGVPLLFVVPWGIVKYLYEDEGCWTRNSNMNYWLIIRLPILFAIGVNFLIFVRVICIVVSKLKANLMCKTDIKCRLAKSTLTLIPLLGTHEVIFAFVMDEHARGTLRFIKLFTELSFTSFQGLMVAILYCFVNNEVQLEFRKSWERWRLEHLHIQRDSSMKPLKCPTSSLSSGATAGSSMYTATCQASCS

SMILES	Ratio EC50 [1]	EC50 [2] [nM]	EC50 [3] [nM]
CC[C@H](C)[C@H](NC(=O)[C@H](CC(C)C)NC(=O)[C@H](Cc1c[nH]c2ccccc12)NC(=O)[C@H](CCC(=O)O)NC(=O)[C@@H](NC(=O)[C@H](Cc1ccccc1)NC(=O)[C@@H]1CSC2CC(=O)N(CCC(=O)NC(C(=O)NCCCCCCNC(=O)COCCOCCNC(=O)CCCCCCCCCCCCCCCCC(=O)O)CCCCNC(=O)CCN3C(=O)CC(SC[C@H](NC(=O)[C@H](Cc4ccc(O)cc4)NC(=O)[C@H](CCC(=O)O)NC(=O)[C@@H](NC(=O)[C@@H](NC(=O)[C@H](CC(=O)O)NC(=O)[C@H](CC(N)=O)NC(=O)[C@@H](NC(=O)[C@H](Cc4ccc(O)cc4)NC(=O)[C@@H](NC(=O)CNC(=O)[C@H](CCC(=O)O)NC(=O)C(C)(C)NC(=O)[C@@H](N)Cc4c[nH]cn4)[C@@H](C)O)[C@@H](C)O)C(C)C)[C@@H](C)O)C(=O)N[C@@H](CCC(=O)O)C(=O)N[C@@H](CCC(=O)O)C(=O)N[C@@H](CCC(=O)O)C(=O)N[C@@H](C)C(=O)N[C@@H](C)C(=O)N[C@@H](CCCCN)C(=O)N1)C3=O)C2=O)[C@@H](C)CC)C(=O)N[C@@H](CCCCN)C(=O)NCC(=O)N[C@@H](CCCCN)C(N)=O (stereo not given in full) (HELM PEPTIDE1{H.[Aib].E.G.T.Y.T.N.D.V.T.E.Y.C.E.E.E.A.A.K.C.F.I.E.W.L.I.K.G.K.[am]}|CHEM1{[O=C(O)CCCCCCCCCCCCCCCCC(=O)NCCOCCOCC(=O)NCCCCCCNC(=O)C(CCCCNC(=O)CCN1C(=O)CC([*:1])C1=O)NC(=O)CCN1C(=O)CC([*:2])C1=O]}$PEPTIDE1,CHEM1,14:R3-1:R1|PEPTIDE1,CHEM1,21:R3-1:R2$$$V2.0)	10.8	0.13	1.4
CC[C@H](C)[C@@H]1NC(=O)[C@H](CC(C)C)NC(=O)[C@H](Cc2c[nH]c3ccccc23)NC(=O)[C@H](CCC(=O)O)NC(=O)[C@H]([C@@H](C)CC)NC(=O)[C@H](Cc2ccccc2)NC(=O)[C@@H](NC(=O)[C@H](CCCCN)NC(=O)[C@H](C)NC(=O)[C@H](C)NC(=O)[C@H](CCC(=O)O)NC(=O)[C@H](CCC(=O)O)NC(=O)[C@H](CCC(=O)O)NC(=O)[C@H](CC(C)C)NC(=O)[C@H](Cc2ccc(O)cc2)NC(=O)[C@H](CCC(=O)O)NC(=O)[C@@H](NC(=O)[C@@H](NC(=O)[C@H](CC(=O)O)NC(=O)[C@H](CC(N)=O)NC(=O)[C@@H](NC(=O)[C@H](Cc2ccc(O)cc2)NC(=O)[C@@H](NC(=O)CNC(=O)[C@H](CCC(=O)O)NC(=O)C(C)(C)NC(=O)[C@@H](N)Cc2c[nH]cn2)[C@@H](C)O)[C@@H](C)O)C(C)C)[C@@H](C)O)CSC2CC(=O)N(CCC(=O)NCCCCC(C(=O)NCCCCCCNC(=O)COCCOCCNC(=O)CCC(NC(=O)CCCCCCCCCCCCCCCCC(=O)O)C(=O)O)NC(=O)CCN3C(=O)CC(SC[C@@H](C(=O)NCC(=O)N[C@@H](CCCCN)C(=O)N4CCC[C@H]4C(=O)N[C@@H](CO)C(=O)N[C@@H](CO)C(=O)NCC(=O)N[C@@H](C)C(=O)N4CCC[C@H]4C(=O)N4CCC[C@H]4C(=O)N4CCC[C@H]4C(=O)N[C@@H](CO)C(N)=O)NC1=O)C3=O)C2=O (stereo not given in full) (HELM PEPTIDE1{H.[Aib].E.G.T.Y.T.N.D.V.T.E.Y.L.E.E.E.A.A.K.C.F.I.E.W.L.I.C.G.K.P.S.S.G.A.P.P.P.S.[am]}|CHEM1{[O=C(O)CCCCCCCCCCCCCCCCC(=O)NC(CCC(=O)NCCOCCOCC(=O)NCCCCCCNC(=O)C(CCCCNC(=O)CCN1C(=O)CC([*:1])C1=O)NC(=O)CCN1C(=O)CC([*:2])C1=O)C(=O)O]}$PEPTIDE1,CHEM1,21:R3-1:R1|PEPTIDE1,CHEM1,28:R3-1:R2$$$V2.0)	61.4	0.14	8.6
CC[C@H](C)[C@@H]1NC(=O)[C@H](CC(C)C)NC(=O)[C@H](Cc2c[nH]c3ccccc23)NC(=O)[C@H](CCC(=O)O)NC(=O)[C@H]([C@@H](C)CC)NC(=O)[C@H](Cc2ccccc2)NC(=O)[C@@H](NC(=O)[C@H](CCCCN)NC(=O)[C@H](C)NC(=O)[C@H](C)NC(=O)[C@H](CCC(=O)O)NC(=O)[C@H](CCC(=O)O)NC(=O)[C@H](CCC(=O)O)NC(=O)[C@H](CC(C)C)NC(=O)[C@H](Cc2ccc(O)cc2)NC(=O)[C@H](CCC(=O)O)NC(=O)[C@@H](NC(=O)[C@@H](NC(=O)[C@H](CC(=O)O)NC(=O)[C@H](CC(N)=O)NC(=O)[C@@H](NC(=O)[C@H](Cc2ccc(O)cc2)NC(=O)[C@@H](NC(=O)CNC(=O)[C@H](CCC(=O)O)NC(=O)C(C)(C)NC(=O)[C@@H](N)Cc2c[nH]cn2)[C@@H](C)O)[C@@H](C)O)C(C)C)[C@@H](C)O)CSC2CC(=O)N(CCC(=O)NCCCCC(C(=O)NCCCCCCNC(=O)COCCOCCNC(=O)COCCOCCNC(=O)CCC(NC(=O)CCCCCCCCCCCCCCCCC(=O)O)C(=O)O)NC(=O)CCN3C(=O)CC(SC[C@@H](C(=O)NCC(=O)N[C@@H](CCCCN)C(=O)N4CCC[C@H]4C(=O)N[C@@H](CO)C(=O)N[C@@H](CO)C(=O)NCC(=O)N[C@@H](C)C(=O)N4CCC[C@H]4C(=O)N4CCC[C@H]4C(=O)N4CCC[C@H]4C(=O)N[C@@H](CO)C(N)=O)NC1=O)C3=O)C2=O (stereo not given in full) (HELM PEPTIDE1{H.[Aib].E.G.T.Y.T.N.D.V.T.E.Y.L.E.E.E.A.A.K.C.F.I.E.W.L.I.C.G.K.P.S.S.G.A.P.P.P.S.[am]}|CHEM1{[O=C(O)CCCCCCCCCCCCCCCCC(=O)NC(CCC(=O)NCCOCCOCC(=O)NCCOCCOCC(=O)NCCCCCCNC(=O)C(CCCCNC(=O)CCN1C(=O)CC([*:1])C1=O)NC(=O)CCN1C(=O)CC([*:2])C1=O)C(=O)O]}$PEPTIDE1,CHEM1,21:R3-1:R1|PEPTIDE1,CHEM1,28:R3-1:R2$$$V2.0)	97.1	0.17	16.5
CC[C@H](C)[C@@H]1NC(=O)[C@H](CC(C)C)NC(=O)[C@H](Cc2c[nH]c3ccccc23)NC(=O)[C@H](CCC(=O)O)NC(=O)[C@H]([C@@H](C)CC)NC(=O)[C@H](Cc2ccccc2)NC(=O)[C@@H](NC(=O)[C@H](CCCCN)NC(=O)[C@H](C)NC(=O)[C@H](C)NC(=O)[C@H](CCC(=O)O)NC(=O)[C@H](CCC(=O)O)NC(=O)[C@H](CCC(=O)O)NC(=O)[C@H](CC(C)C)NC(=O)[C@H](Cc2ccc(O)cc2)NC(=O)[C@H](CCC(=O)O)NC(=O)[C@@H](NC(=O)[C@@H](NC(=O)[C@H](CC(=O)O)NC(=O)[C@H](CC(N)=O)NC(=O)[C@@H](NC(=O)[C@H](Cc2ccc(O)cc2)NC(=O)[C@@H](NC(=O)CNC(=O)[C@H](CCC(=O)O)NC(=O)C(C)(C)NC(=O)[C@@H](N)Cc2c[nH]cn2)[C@@H](C)O)[C@@H](C)O)C(C)C)[C@@H](C)O)CSC2CC(=O)N(CCC(=O)NCCCCC(C(=O)NCCCCCCNC(=O)COCCOCCNC(=O)CCCCCCCCCCCCCCCCC(=O)O)NC(=O)CCN3C(=O)CC(SC[C@@H](C(=O)NCC(=O)N[C@@H](CCCCN)C(=O)N4CCC[C@H]4C(=O)N[C@@H](CO)C(=O)N[C@@H](CO)C(=O)NCC(=O)N[C@@H](C)C(=O)N4CCC[C@H]4C(=O)N4CCC[C@H]4C(=O)N4CCC[C@H]4C(=O)N[C@@H](CO)C(N)=O)NC1=O)C3=O)C2=O (stereo not given in full) (HELM PEPTIDE1{H.[Aib].E.G.T.Y.T.N.D.V.T.E.Y.L.E.E.E.A.A.K.C.F.I.E.W.L.I.C.G.K.P.S.S.G.A.P.P.P.S.[am]}|CHEM1{[O=C(O)CCCCCCCCCCCCCCCCC(=O)NCCOCCOCC(=O)NCCCCCCNC(=O)C(CCCCNC(=O)CCN1C(=O)CC([*:1])C1=O)NC(=O)CCN1C(=O)CC([*:2])C1=O]}$PEPTIDE1,CHEM1,21:R3-1:R1|PEPTIDE1,CHEM1,28:R3-1:R2$$$V2.0)	15.3	0.15	2.3
CCCCCCCCCCCCCCCC(=O)NCCCCCCNC(=O)C1CCCCNC(=O)CCN2C(=O)CC(SC[C@@H](C(=O)NCC(=O)N[C@@H](CCCCN)C(N)=O)NC(=O)[C@H]([C@@H](C)CC)NC(=O)[C@H](CC(C)C)NC(=O)[C@H](Cc3c[nH]c4ccccc34)NC(=O)[C@H](CCC(=O)O)NC(=O)[C@H]([C@@H](C)CC)NC(=O)[C@H](Cc3ccccc3)NC(=O)[C@@H](NC(=O)[C@H](CCCCN)NC(=O)[C@H](C)NC(=O)[C@H](C)NC(=O)[C@H](CCC(=O)O)NC(=O)[C@H](CCC(=O)O)NC(=O)[C@H](CCC(=O)O)NC(=O)[C@H](CC(C)C)NC(=O)[C@H](Cc3ccc(O)cc3)NC(=O)[C@H](CCC(=O)O)NC(=O)[C@@H](NC(=O)[C@@H](NC(=O)[C@H](CC(=O)O)NC(=O)[C@H](CC(N)=O)NC(=O)[C@@H](NC(=O)[C@H](Cc3ccc(O)cc3)NC(=O)[C@@H](NC(=O)CNC(=O)[C@H](CCC(=O)O)NC(=O)C(C)(C)NC(=O)[C@@H](N)Cc3c[nH]cn3)[C@@H](C)O)[C@@H](C)O)C(C)C)[C@@H](C)O)CSC3CC(=O)N(CCC(=O)N1)C3=O)C2=O (stereo not given in full) (HELM PEPTIDE1{H.[Aib].E.G.T.Y.T.N.D.V.T.E.Y.L.E.E.E.A.A.K.C.F.I.E.W.L.I.C.G.K.[am]}|CHEM1{[CCCCCCCCCCCCCCCC(=O)NCCCCCCNC(=O)C(CCCCNC(=O)CCN1C(=O)CC([*:2])C1=O)NC(=O)CCN1C(=O)CC([*:1])C1=O]}$PEPTIDE1,CHEM1,21:R3-1:R1|PEPTIDE1,CHEM1,28:R3-1:R2$$$V2.0)	18.3	0.12	2.2

Source: ChEMBL document CHEMBL4699602, “Stapled and Xenopus Glucagon-Like Peptide 1 (GLP-1)-Based Dual GLP-1/Gastrin Receptor Agonists with Improved Metabolic Benefits in Rodent Models of Obesity and Diabetes” (J Med Chem, 2020)
